The term IC50 denotes the concentration that inhibits the measured activity by half.

This note sets out measurements from patent US9758459B2, “Allosteric modulators of factor XIa as anticoagulant agents” (VIRGINIA COMMONWEALTH UNIVERSITY, priority 2012, dated 2017).

For this test, the target named is T1, human factor XIa (Homo sapiens, UniProt P03951).
T1 construct: purchased Haematologic Technologies (Essex Junction, Vt.); host or cells: human plasma
As to the kind of experiment: Direct inhibition of factor XIa, chromogenic substrate S-2366 hydrolysis assay. The class given is biochemical. Conditions: for IC50: read-out: IC50 (converted). Here is the method: Solvent A consisted of 25 mM n-hexylamine in water containing 0.1% (v/v) formic acid, while solvent B consisted of 25 mM n-hexylamine in acetonitrile-water mixture (3:1 v/v) containing 0.1% (v/v) formic acid. […] The sample was first monitored for absorbance in the range of 190-400 nm and then directly introduced into the mass spectrometer. ESI-MS detection was performed in positive ion mode for which the capillary voltage was 4 kV, cone voltage was 20 V, desolvation temperature was 350° C. and nitrogen gas flow was maintained at 650 L/hr. Mass scans were collected in the range of 1000-2048 amu within 0.25 s and several of these added to enhanced signal-to-noise ratio. Direct Inhibition of Factor XIa. […] After 10 min incubation, 5 μL factor XIa substrate (345 μM) was rapidly added and the residual FXIa activity was measured from the initial rate of increase in absorbance at 405 nm. […] Relative residual FXIa activity at each concentration of the inhibitor was calculated from the ratio of FXIa activity in the presence and absence of the inhibitor. Logistic equation 1 was used to fit the dose-dependence of residual protease activity to obtain the potency (IC50) and efficacy (ΔY) of inhibition.
Direct Inhibition of Factor XIa by Sulfated QAOs was performed as described in Example 1.
The ability of the sulfated inositol analogs to inhibit factor XIa was studied using the in vitro assay described in Example 1. In this assay, the factor XIa enzyme is anticipated to hydrolyze a particular peptide linkage in the corresponding peptide substrate releasing p-nitroaniline which absorbs at wavelength of 405 nm giving a line slope corresponds to the enzyme activity. The line slope of no inhibitor status is considered as a reference slope and it depends on the relative concentrations of factor XIa enzyme and its substrate. Factor XIa enzyme concentration was decided to get appropriate reference slope of approximately 25-35, whereas the substrate concentration was set to be larger than its affinity to factor XIa enzyme under equilibrium condition, Km. In presence of potential factor XIa inhibitor, the enzyme capacity to hydrolyze the designated peptide linkage in the substrate gets diminished or completely abolished depending on the inhibitor concentration and efficacy. […] Such decreased slope reflects a drop in the catalytic enzyme activity of factor XIa.

Values joined by “and” are separate entries in the source; they are usually repeats but may differ in a detail not shown here. Identical values can stand only once. Like-named read-outs stand apart in the source and are kept apart here.

T1 sequence (P03951 19-387 limits assumed): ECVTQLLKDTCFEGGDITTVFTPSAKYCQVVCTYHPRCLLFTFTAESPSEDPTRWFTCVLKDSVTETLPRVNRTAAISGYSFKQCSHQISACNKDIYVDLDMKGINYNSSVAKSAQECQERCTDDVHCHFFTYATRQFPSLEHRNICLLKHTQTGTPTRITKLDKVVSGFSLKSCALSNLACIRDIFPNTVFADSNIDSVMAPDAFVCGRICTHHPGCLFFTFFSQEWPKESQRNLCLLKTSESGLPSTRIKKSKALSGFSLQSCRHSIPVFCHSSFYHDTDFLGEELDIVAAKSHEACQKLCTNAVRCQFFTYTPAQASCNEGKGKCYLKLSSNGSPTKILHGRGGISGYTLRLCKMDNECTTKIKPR
T1 sequence (P03951 388-625 limits assumed): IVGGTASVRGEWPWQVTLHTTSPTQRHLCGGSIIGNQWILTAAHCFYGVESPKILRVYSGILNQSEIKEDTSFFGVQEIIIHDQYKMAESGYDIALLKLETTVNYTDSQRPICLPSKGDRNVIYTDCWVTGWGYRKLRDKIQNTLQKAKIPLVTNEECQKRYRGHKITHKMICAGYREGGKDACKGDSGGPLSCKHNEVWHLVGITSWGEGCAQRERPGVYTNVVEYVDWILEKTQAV

`O=C(OC[C@H]1O[C@@H](OC(=O)c2cc(OS(=O)(=O)O)c(O)c(OS(=O)(=O)O)c2)[C@H](OC(=O)c2cc(OS(=O)(=O)O)c(O)c(OS(=O)(=O)O)c2)[C@@H](OC(=O)c2cc(OS(=O)(=O)O)c(O)c(OS(=O)(=O)O)c2)[C@@H]1OC(=O)c1cc(OS(=O)(=O)O)c(O)c(OS(=O)(=O)O)c1)c1cc(OS(=O)(=O)O)c(O)c(OS(=O)(=O)O)c1` [SPGG, Sulfated Pentagalloylglucoside]: the “efficacy of FXIa inhibition” value (chromogenic substrate) is ~100% and 97%. Further, the ΔY (efficacy of inhibition) is listed as 97.1 ± 3.2. Also, the “HS (Hill slope)” value (pH 7.4, 37° C.) is 1.3 and 1.3 ± 0.1. The IC50 was 0.689 µM (pH 7.4, 37° C., S-2366); ~0.55 µM and 0.551 µM (translated with average molecular weight 2178 g/mol).
